Patent publication US20100168085A1, “Dopamine and agonists and antagonists thereof for modulation of suppressive activity of CD4+CD25+ regulatory T cells” (YESA RESEARCH AND DEVELOPMENT CO. LTD. at the Weizmann …, priority 2003, published 2010)

Experiments:
[1] = tested on: BALB/c mice, optic nerve crush injury; conditions: 0.4 mg/kg immediately after severe optic nerve crush, two weeks later; vehicle 789±23
Source text: (iv) Retrograde labeling of retinal ganglion cells. Mice were anesthetized and placed in a stereotactic device. The skull was exposed and kept dry and clean. The bregma was identified and marked. The designated point of injection was at a depth of 2 mm from the brain surface, 2.92 mm behind the bregma in the anteroposterior axis and 0.5 mm lateral to the midline. A window was drilled in the scalp above the designated coordinates in the right and left hemispheres. The neurotracer dye FluoroGold (5% solution in saline; Fluorochrome, Denver, Colo.) was applied (1 μL, at a rate of 0.5 μL/min in each hemisphere) using a Hamilton syringe, and the skin over the wound was sutured.
(xxi) Assessment of mouse retinal ganglion cell survival. Mice were given a lethal dose of pentobarbitone (170 mg/kg). Their eyes were enucleated and the retinas were detached and prepared as flattened whole mounts in 4% paraformaldehyde solution. Labeled cells from 4-6 selected fields of identical size (0.7 mm^2) were counted. The selected fields were located at approximately the same distance from the optic disk (0.3 mm) to overcome the variation in RGC density as a function of distance from the optic disk. Fields were counted under the fluorescence microscope (magnification ×800) by observers blinded to the identity of the retinas. The average number of RGCs per field in each retina was calculated.

Treg = Treg apoptosis (propidium iodide sub-G1, annexin V, FACS); format: cell-based, mouse
Protocol: (viii) FACS analysis of annexin V-positive regulatory T cells. PE-stained CD25^+ cells were stained for annexin V-FITC according to the manufacturer's instructions. The cells were scored as described above, and CD25^+ lymphocytes were then gated for analysis of annexin V-positive cells.
(xv) Propidium iodide staining. Cells were fixed in cold ethanol 80% and treated with RNAse. Propidium iodide was then applied, and cell samples were assessed by FACSort.

[2] = tested on: D5-R transcripts in Treg and Teff; conditions: 2 h with 10^−5 M
Protocol: (§1) (xx) Polymerase chain reaction (PCR). Total RNA was purified with the RNeasy Mini Kit (Qiagen, Germantown, Md.) and transcribed into cDNA using poly dT primers. For PCR the following primers were used: […]
(§2) This was done by assaying the expression of the dopamine type-1 receptors, D1-R and D5-R, in Treg and Teff, in the absence and in the presence of dopamine (incubation of the cells for 2 h with 10^−5 M dopamine).

[3] = tested on: D1-R transcripts in Treg and Teff; conditions: 2 h with 10^−5 M
Protocol: as §1, §2

[4] = tested on: adhesion of Treg and Teff to fibronectin
Protocol: (§3) One of the main features of T cells is their ability to migrate to tissues in need of rescue or repair [such as diseased or damaged CNS (Hickey, 1999; Flugel et al., 2001). […] We therefore incubated Treg with dopamine for 2 h and then examined their adhesion to chondroitin sulfate proteoglycans (CSPG), extracellular matrix proteins often associated with injured tissues (Jones et al., 2003).

[5] = tested on: adhesion of Treg and Teff to chondroitin sulfate proteoglycans (CSPG); assay: T cell adhesion to CSPG; format: cell-based, mouse
Protocol: (xiii) T cell adhesion. Adhesion of activated CD4^+CD25^+ and CD4^+CD25^− T cells to CSPG was analyzed as previously described (23). Briefly, flat-bottomed microtiter (96-well) plates were pre-coated with CSPG (1 μg/well, 40 min, 37° C.). ^51Cr-labeled T cells were left untreated or were pre-incubated (30 min, 37° C.) with dopamine or the specified agonist or antagonist (10^−5M). The cells (10^5 cells in 100 μL of RPMI containing 0.1% BSA) were then added to the CSPG-coated wells, incubated (30 min, 37° C.), and washed. Adherent cells were lysed and the resulting supernatants were removed and counted in a γ-counter. Results were expressed as the mean percentage of the total population before adhesion of bound T cells from quadruplicate wells for each experimental group.
as §3
To verify that the effect of dopamine on adhesion of Treg is exerted through the ERK1/2 pathway, we incubated Treg with the ERK1/2 signaling pathway inhibitor PD98059 before carrying out the adhesion assay. […] Since interaction of T cells with CSPG is mediated in part by the CD44 receptor (Henke et al., 1996), and in light of the known dependence of CD44 expression on the ERK signaling pathway, it was conceivable that dopamine might affect the expression of CD44 in Treg.

For `NCCc1ccc(O)c(O)c1` [dopamine, 3,4-dihydroxyphenethylamine], the “Viable neurons in retina (mean±SD)” value [1] was 1110±56 /mm^2, the “Apoptosis, annexin V staining for phosphatidylserine” value (Treg; Treg incubated with compound) was “could not detect any signs of apoptosis” and the “Apoptotic cells (sub-G1), propidium iodide staining” value (Treg; Treg incubated with dopamine) was “No signs of apoptosis”. For the same compound, the “Increase of D5-R transcripts in Teff” value [2] was 10 fold, the “Number of D5-R transcripts in Treg” value [2] was “unchanged” and the “Number of D1-R transcripts in Treg or Teff” value [3] was “did not significantly alter”. The “Adhesion of Teff to fibronectin” value [4] was “slight increase”, the “Adhesion of Treg to fibronectin” value [4] was “no effect” and the “Adhesion of Teff to CSPG” value [5] was “slight, nonsignificant effect”. The “Adhesion of Treg to CSPG” value ([5]; dopamine 10^−9-10^−5 M, concentration-dependent, agonist 10^−5 M) was “significantly decreased”.
